Experimental data published in patent publication EP1094830B1, “USE OF COMPOSITION COMPRISING AT LEAST ONE SUBSTANCE WITHIN THE GROUP GnRH-ANALOGUES FOR TREATMENT OF OBSESSIVE-COMPULSIVE DISORDER (OCD)” (Läkartjänster I Västsverige AB, priority 1998, dated 2005).
“Also recorded” adds a separate entry of the source.

Experiments:
[1] = system: obsessive-compulsive neurosis (nowadays called obsessive-compulsive disorder, OCD); details: cited from earlier work
[2] = system: symptoms of androgenic hyperactivity; assay: Case study: treatment of the patient's symptoms of androgenic hyperactivity; type: in vivo, man; details: same patient, before triptorelin
Experimental: An endocrinological investigation was performed, based upon their symptoms of androgenic hyperactivity.

OCD-symptoms [3] = assay: Case study: treatment of a patient with a severe form of OCD; type: in vivo, man; details: earlier treatment of the same patient(s) with anti-androgenic drugs, before the GnRH-analogue
Experimental: The GnRH-analogue triptorelin is available in a pharmaceutical preparation (Decapeptyl® Depot). In the use of this preparation, an injection is administered containing triptorelin embonate in a dose corresponding to 3.75 mg triptorelin. Injections with this dose are given intramuscularly. They should be repeated every fourth week from the first injection. […] A then person was referred to a psychiatric specialist clinic from another qualified psychiatrist for evaluation and treatment of a severe condition of OCD. […] The situation when the patient came to the clinic was that they had sickness pension since more than ten years. They lived alone in a small apartment which they hardly ever left. Obsessions and compulsive rituals occupied most of their time. They repeated against their will meaningless strings of words silently during several hours every day. They felt they had to read the newspaper according to certain ritual patterns; if they did anything wrong, they had to start again from the beginning. Sometimes, it took them the whole day to read the newspaper. […] Among other things, they placed their books so that the covers were strictly oriented along north-south lines. Their contacts with other persons were highly restraint and mainly limited to some relatives. […] The clinical diagnosis was that they suffered from a very serious form of OCD. […]

OCD-symptoms [4] = assay: as above; type: in vivo, man
Experimental: The GnRH-analogue triptorelin is available in a pharmaceutical preparation (Decapeptyl® Depot). In the use of this preparation, an injection is administered containing triptorelin embonate in a dose corresponding to 3.75 mg triptorelin. Injections with this dose are given intramuscularly. They should be repeated every fourth week from the first injection.
A detailed case study of the treatment of a patient with a severe form of OCD is disclosed in the following, as supporting evidence of the effect of the method.
A then person was referred to a psychiatric specialist clinic from another qualified psychiatrist for evaluation and treatment of a severe condition of OCD.
The situation when the patient came to the clinic was that they had sickness pension since more than ten years. They lived alone in a small apartment which they hardly ever left. Obsessions and compulsive rituals occupied most of their time. They repeated against their will meaningless strings of words silently during several hours every day. They felt they had to read the newspaper according to certain ritual patterns; if they did anything wrong, they had to start again from the beginning. Sometimes, it took them the whole day to read the newspaper. […] Among other things, they placed their books so that the covers were strictly oriented along north-south lines. Their contacts with other persons were highly restraint and mainly limited to some relatives.
The clinical diagnosis was that they suffered from a very serious form of OCD. They were also found to be intelligent without any signs of any other mental illness or personality disorder. Thus, it was a clearly defined case of OCD.
During long periods of time the patient had been treated with the drugs which presently are considered to have the best effect against OCD. In the treatment of the patient they had also been given supportive psychotherapy.
In order to overcome this, treatment with the long-acting GnRH-analogue triptorelin (Decapeptyl® Depot) was given every fourth week as deep intramuscular depot injections with a dose corresponding to 3.75 mg triptorelin in each injection.

[5] = after another two months (four months in all), 3.75 mg intramuscular every fourth week

Row | Compound | effect in treatment of obsessive-compulsive neurosis ([1]; a few patients, Casas et al. 1986) | effect on OCD ([1]; later investigations by other researchers) | effect on symptoms of androgenic hyperactivity [2] | effect on OCD (OCD-symptoms [3]) | effect on OCD-symptoms (OCD-symptoms [4]; [5]) | obsessive thoughts (OCD-symptoms [4]; [5]) | recovery from very severe form of OCD (OCD-symptoms [4]; after three months of treatment) | effect on OCD-symptoms (OCD-symptoms [4]; after two months treatment, 3.75 mg intramuscular every fourth week) | effect on OCD-symptoms (OCD-symptoms [4]; initially during treatment, 3.75 mg triptorelin deep intramuscular depot injection every fourth week)
1 | CC(=O)O[C@]1(C(C)=O)CC[C@H]2[C@@H]3C=C(Cl)C4=CC(=O)[C@@H]5C[C@@H]5[C@]4(C)[C@H]3CC[C@@]21C [cyproterone acetate] | effective | failed to demonstrate any effect | without any significant effects | without success; also recorded: without any major improvement; also recorded: without any obvious effect on their OCD |  |  |  |  | 
2 | triptorelin |  |  |  |  | dramatically better | all obsessive thoughts had disappeared | substantially recovered | began to feel better | accentuation of the patients OCD-symptoms
